# In patent EP4631501A1, “COMBINATIONS OF A CALCIUM HOMEOSTASIS DISRUPTOR WITH A DEATH RECEPTOR 5 AGONIST FOR TREATING CANCER” (Stichting Het Nederlands Kanker Instituut- Antoni van …, priority 2024, dated 2025):
# Like-named read-outs stand apart in the source and are kept apart here.
# Tests used:
# [1] = system: Hepa1-6 liver cancer cells; format: in vivo, C57BL/6 mice
# From the text: (§1) In order to obtain a synergistic effect, we combed low doses of DR5 agonist antibody either IgG-conatumumab or IgA-conatumumab with salinomycin, as senolytic cocktails. […] To test this senolytic cocktail in vivo, we used both immunodeficient and immunocompetent mouse models. We engrafted A549 cells into immunodeficient nude mice and Hepa1-6 liver cancer cells in syngeneic immunocompetent C57BL/6 mice. After tumors were established, we treated with alisertib to induce senescence and combinations of the two senolytic drugs.
# (§2) Schematic of iCas9-associated senolytic CRISPR screen workflow. A549 cells were infected with a doxycycline-inducible Cas9 (iCas9) lentiviral vector. Next, Brunello lentiviral whole genome-wide gRNA collection virus was introduced to the A549-iCas9 cells. […] Changes in library representation after 10 days doxycycline treatment were determined by Illumina deep-sequencing. • (B). gRNAs prioritized for further analysis were selected by the fold depletion of abundance in S2 and S1 samples compared with that in P2 and P2 samples, using methods as described previously (Evers et al., Nat Biotech, 2016). […] Cell viability was assessed by colony formation assay in the A549 cells stably infected with doxycycline-inducible Cas9 (iCas9) lentiviral vectors and a guide RNAs target SLC25A23 lentiviral vector.
# A549 cells = assay: Colony formation assay in SLC25A23 shRNA knock-down A549 cells treated with senescence inducers; format: cell-based; conditions: three independent shRNAs targeting SLC25A23
# A549 lung cancer cells = format: in vivo, BALB/c nude mice
# From the text: as §1, §2
# DR5 = assay: Western blot of DR5 induction in A549 cells treated with salinomycin and NAC; format: cell-based; conditions: salinomycin plus NAC
# From the text: (Fig. 3A). This notion was also supported by the western blot analysis. We observed that an upregulation of death receptor 5 (DR5), cleavage of caspase 3 and 8 (cl-CASP8 and 3), indicates extrinsic apoptosis activation. […] In Figure 3B, we noticed the upregulation of cJUn and DR5 by salinomycin treatment. This has been denoted by the past studies showing salinomycin could modulate autophagy to induce ROS (Verdoodt 2012). The elevated ROS led to cJun upregulation and NF-kB activation to increase the DR5 expression (Fu 2010). To validated molecular mechanism in our senescent models, we knocked-down cJun, NF-kB2 and Nrf2 using shRNA. […]
# • Figure 1: CRISPR-based senolytic screen identifies SLC25A23 as a senolytic target • (A). […] Changes in library representation after 10 days doxycycline treatment were determined by Illumina deep-sequencing. • (B). gRNAs prioritized for further analysis were selected by the fold depletion of abundance in S2 and S1 samples compared with that in P2 and P2 samples, using methods as described previously (Evers et al., Nat Biotech, 2016). […] Cell viability was assessed by colony formation assay in the A549 cells stably infected with doxycycline-inducible Cas9 (iCas9) lentiviral vectors and a guide RNAs target SLC25A23 lentiviral vector. […] Cell viability was assessed by colony formation assay in the A549 and MDA-MB-231 cells. […]
# [2] = system: lung (A549), breast (MDA-MB-231, MCF-7, T47D) and liver (SK-Hep1) cancer models; assay: Colony formation assay, senescent versus proliferating cancer cells treated with salinomycin
# [3] = system: alisertib-induced senescent and proliferating A549; assay: Western blot of cell death biomarkers in alisertib-induced senescent and proliferating A549
# senescent cells = assay: Cell morphology imaging of senescent cells treated with salinomycin
compound,measurement,setting,value
COc1cc(Nc2ncc3c(n2)-c2ccc(Cl)cc2C(c2c(F)cccc2OC)=NC3)ccc1C(=O)O [alisertib],tumor growth,"[1]; Hepa1-6 in C57BL/6 mice, 25 mg kg-1 alisertib, 1.5 mg kg-1 salinomycin, 0.3 µg per dose MD5-1",limited tumor growth inhibition
same,sensitivity of SLC25A23 suppressed cells to senescence inducers,A549 cells,highly sensitive
same,tumor growth,"A549 lung cancer cells; A549 in nude mice, 25 mg kg-1 alisertib, 1.5 mg kg-1 salinomycin, 5 µg per dose conatumumab (2.5 µg in three-way combination)",limited tumor growth inhibition
COc1ccc2c(c1)C1(CC1c1ccc3c(C=Cc4ccc(CN5CC(C)OC(C)C5)cc4)n[nH]c3c1)C(=O)N2 (stereo not shown) [CFI-400945],sensitivity of SLC25A23 suppressed cells to senescence inducers,A549 cells,highly sensitive
"CC(=O)N[C@@H](CS)C(=O)O [N-Acetyl Cysteine (NAC), N-Acetyl Cysteine]",DR5 upregulation in salinomycin treated cells,DR5,could reserve the DR5 upregulation
CC[C@@H](C(=O)[C@@H](C)[C@@H](O)[C@H](C)[C@@H]1O[C@@H]([C@@H](CC)C(=O)O)CC[C@@H]1C)[C@H]1O[C@]2(C=C[C@@H](O)[C@]3(CC[C@@](C)([C@H]4CC[C@](O)(CC)[C@H](C)O4)O3)O2)[C@H](C)C[C@@H]1C [salinomycin],tumor growth,"[1]; mouse, in vivo",limited tumor growth inhibition
same,killing of senescent cells versus proliferating cells,[2],preferential killing of senescent cells over proliferating cells
same,Microtubule-associated protein 1A/1B-light chain 3 (LC3),[3],upregulation
same,cJUn,[3],upregulation
same,caspase 3 and 8 (cl-CASP8 and 3),[3],cleavage
same,cleaved Gasdermin-D (cl-GSDMD),[3],upregulation
same,death receptor 5 (DR5),[3],upregulation
same,mixed lineage kinase domain-like protein (MLKL) phosphorylation,[3],increased phosphorylation
same,cell death phenotype under the microscope,senescent cells,PANoptosis phenotype
same,tumor growth,"A549 lung cancer cells; mouse, in vivo",limited tumor growth inhibition
COc1cc([C@@H]2c3cc4c(cc3[C@@H](O[C@@H]3O[C@@H]5CO[C@@H](C)O[C@H]5[C@H](O)[C@H]3O)[C@H]3COC(=O)[C@H]23)OCO4)cc(OC)c1O [etoposide],sensitivity of SLC25A23 suppressed cells to senescence inducers,A549 cells,highly sensitive
